Laboratory results as given in publication PMC8703108, “Identifying of Anti-Thrombin Active Components From Curcumae Rhizoma by Affinity-Ultrafiltration Coupled With UPLC-Q-Exactive Orbitrap/MS” (Frontiers in Pharmacology, 2021).

What follows are compounds tested against T1, thrombin (THR, FIIα) (Homo sapiens, UniProt P00734) (assay: chromogenic substrate S-2238 assay; affinity ultrafiltration LC-MS hit).
T1 construct: gene F2; human recombinant THR
Format: biochemical

Row | IC50 [µM] | SMILES
1 | 654 | CC(=O)OC(CCc1ccc(O)cc1)CC(CCc1ccc(O)c(O)c1)OC(C)=O (stereo not drawn) [C11, 4-[3,5-bis(acetyloxy)-7-(4-hydroxyphenyl)heptyl]-1,2-benzenediol]
2 | 9.92 | CC(=O)OC(CCc1ccc(O)cc1)CC(O)CCc1ccc(O)cc1 (stereo not drawn) [C8, 3-acetate-1,7-bis(4-hydroxyphenyl)-3,5-heptanediol]
3 | 358 | CC(=O)OC(CCc1ccc(O)c(O)c1)CC(CCc1ccc(O)c(O)c1)OC(C)=O (stereo not drawn) [C7, 4,4′-[3,5-bis(acetyloxy)-1,7-heptanediyl]bis-1,2-benzenediol]
